In patent US20040014683A1, “Sugar-derived gellant for hydrogel formation” (priority 2001, published 2004):

Test: Gel-forming ability test (heat to dissolve, cool to 25° C.)
Assay type: physicochemical
Details: 1 mg gelatinizer in water (900 mg) and methanol (100 mg); heated, gradually cooled, left at room temperature approximately 2-5 hours; tube inverted
Procedure: The dodecanoylaminophenol-β-D-glucopyranoside and dodecanoylaminophenol-β-D-galactopyranoside (1 mg of each) obtained in the above experiments were respectively weighed out into test tubes, and a mixed solvent of water (900 mg) and methanol (100 mg) was added. The mixture was heated to ensure complete dissolution. Subsequently, it was gradually cooled, and left at room temperature for approximately 2-5 hours.
The gel-forming ability was evaluated as follows.
The solvent was water (including a small amount of methanol and ethanol), methanol, ethanol, 1-butanol, t-butanol, tetrahydrofuran, chloroform, dichloromethane, n-hexane, ethyl acetate, dimethylformamide or dimethyl sulfoxide.
One of the aforesaid solvents was mixed in a test tube wherein the two types of gelatinizer prepared in the Examples were sealed such that the concentration of gelatinizer was 0.1-3.0 wt %, and this mixture was heated until the solids dissolved. The resulting solution was cooled to 25° C. for one hour. The gelatinizer and solvent were introduced into a test tube capped by a diaphragm, and heated in the oil bath until the solids dissolved. This solution was cooled to 25° C.

Substance	hydrated gel formation
dodecanoylaminophenol-β-D-galactopyranoside	hydrated gel which did not collapse even when inverted
dodecanoylaminophenol-β-D-glucopyranoside	hydrated gel which did not collapse even when inverted
